Measured values published in patent publication US6573275B1, “Bicyclic amines” (Syngenta Limited, priority 1995, dated 2003).

Test system: peach aphid (Myzus persicae)
Assay: Insecticidal test against peach aphid, infested Chinese cabbage leaves sprayed
Type: in vivo
Conditions: peach aphid (Myzus persicae) on Chinese cabbage leaves, sprayed with 500 ppm composition unless otherwise stated, mortality assessed after 3 days
Experimental: This Example illustrates the insecticidal properties of the compounds of Formula I. The activity of the compounds of Formula I was determined using a variety of pests. The pests were treated with a liquid composition containing 500 parts per million (ppm) by weight of the compound unless otherwise stated. The compositions were made by dissolving the compound in acetone and ethanol (50:50) mixture and diluting the solutions with water containing 0.05% by weight of a wetting agent sold under the trade name “SYNPERONIC” NP8 until the liquid composition contained the required concentration of the compound. “SYNPERONIC” is a Registered Trade Mark.
The test procedure adopted with regard to each pest was basically the same and comprised supporting a number of the pests on a medium which was usually a substrate, a host plant or a foodstuff on which the pests feed, and treating either or both the medium and the pests with the compositions. The mortality of the pests was then assessed at periods usually varying from two to five days after the treatment.
In this test Chinese cabbage leaves were infested with aphids, the infested leaves were sprayed with the test composition, and the mortality assessed after 3 days.

SMILES	Score (grading of mortality)
COC(=O)CN1C2CCC1CC(C#N)(c1cccnc1)C2 (stereo not drawn) [Compound 51, exo-3-(pyrid-3-yl)-endo-3-cyano-8-(methoxycarbonylmethyl)-8-azabicyclo[3.2.1]octane]	A (A indicates 80-100% mortality)
CN1C2CCC1CC(C#N)(c1ccc([N+](=O)[O-])cc1F)C2 (stereo not shown) [Compound 52]	C (C indicates less than 40% mortality)
CN1C2CCC1CC(C#N)(c1cccc(F)c1)C2 (stereo not shown) [Compound 53]	A (A indicates 80-100% mortality)
N#CC1(c2cccnc2)CC2CCC(C1)N2CCO (stereo not shown) [Compound 54]	A (A indicates 80-100% mortality)
CN1C2CCC1CC(C#N)(c1cnc(Cl)c(Cl)c1)C2 (stereo not drawn) [Compound 55, exo-3-(5,6-dichloropyrid-3-yl)-endo-3-cyano-8-methyl-8-azabicyclo[3.2.1]octane]	A (A indicates 80-100% mortality)
C#CCN1C2CCC1CC(C#N)(c1cccnc1)C2 (stereo not shown) [Compound 56]	A (A indicates 80-100% mortality)
CN1C2CCC1CC(C#N)(c1cccnc1)C2 (stereo not shown) [Compound 57]	A (A indicates 80-100% mortality)
CC=CCN1C2CCC1CC(C#N)(c1cccnc1)C2 (stereo not shown) [Compound 58]	C (C indicates less than 40% mortality)
N#CC1(c2cc(F)cc(F)c2)CC2CCC(C1)N2c1ccc([N+](=O)[O-])cc1 (stereo not shown) [Compound 59]	A (A indicates 80-100% mortality)
CN1C2CCC1CC(C#N)(c1cncc(Cl)c1)C2 (stereo not drawn) [Compound 60, exo-3-(5-chloropyrid-3-yl)-endo-3-cyano-8-methyl-8-azabicyclo[3.2.1]octane]	A (A indicates 80-100% mortality)
N#CC1(c2cccnc2)CC2CCC(C1)N2c1ccccc1 (stereo not shown) [Compound 61]	A (A indicates 80-100% mortality)
CN1C2CCC1CC(C#N)(c1cnccn1)C2 (stereo not drawn) [Compound 62, exo-3-(pyrazin-2-yl)-endo-3-cyano-8-methyl-8-azabicyclo[3.2.1]octane]	A (A indicates 80-100% mortality)
CN1C2CCC1CC(C#N)(c1cc(Cl)nc(Cl)n1)C2 (stereo not drawn) [Compound 63, exo-3-(2,6-dichloropyrimid-4-yl)-endo-3-cyano-8-methyl-8-azabicyclo[3.2.1]octane]	C (C indicates less than 40% mortality)
N#CC1(c2cncc(Cl)c2)CC2CCC(C1)N2CCF (stereo not shown) [Compound 64]	A (A indicates 80-100% mortality)
CN1C2CCC1CC(C#N)(c1cc(Cl)nc(Cl)c1)C2 (stereo not drawn) [Compound 65, exo-3-(2,6-dichloropyrid-4-yl)-endo-3-cyano-8-methyl-8-azabicyclo[3.2.1]octane]	C (C indicates less than 40% mortality)
CN1[C@@H]2CC[C@H]1C[C@](C#N)(c1cc(Cl)nc(NN)c1)C2 [Compound 66, exo-3-(2-chloro-6-hydrazinopyrid-4-yl)-endo-3-cyano-8-methyl-8-azabicyclo[3.2.1]octane]	C (C indicates less than 40% mortality)
CN1C2CCC1CC(C#N)(c1ccncc1)C2 (stereo not drawn) [Compound 67, exo-3-(pyrid-4-yl)-endo-3-cyano-8-methyl-8-azabicyclo[3.2.1]octane]	A (A indicates 80-100% mortality)
CN1C2CCC1CC(C#N)(c1cncc(Br)c1)C2 (stereo not drawn) [Compound 68, exo-3-(5-bromopyrid-3-yl)-endo-3-cyano-8-methyl-8-azabicyclo[3.2.1]octane]	A (A indicates 80-100% mortality)
C=COC(=O)N1[C@@H]2CC[C@H]1C[C@](C#N)(c1cncc(Cl)c1)C2 [Compound 69, exo-3-(5-chloropyrid-3-yl)-endo-3-cyano-8-(vinyloxycarbonyl)-8-azabicyclo[3.2.1]octane]	A (A indicates 80-100% mortality)
N#CC1(c2cncc(Cl)c2)CC2CCC(C1)N2 (stereo not drawn) [Compound 70, exo-3-(5-chloropyrid-3-yl)-endo-3-cyano-8-azabicyclo[3.2.1]octane]	A (A indicates 80-100% mortality)
CN1C2CCC1CC(C#N)(c1cccc(Cl)n1)C2 (stereo not shown) [Compound 71]	A (A indicates 80-100% mortality)
N#C[C@@]1(c2cncc(Cl)c2)C[C@H]2CC[C@@H](C1)N2CC(F)(F)F [Compound 72, exo-3-(5-chloropyrid-3-yl)-endo-3-cyano-8-(2,2,2-trifluoroethyl)-8-azabicyclo[3.2.1]octane]	A (A indicates 80-100% mortality)
N#CC1(c2cc(F)cc(F)c2)CC2CCC(C1)N2c1ccccn1 (stereo not shown) [Compound 73]	C (C indicates less than 40% mortality)

SMILES	Score (grading of mortality)
N#CC1(c2cncc(Cl)c2)CC2CCC(C1)N2c1ccccc1 (stereo not shown) [Compound 74]	A (A indicates 80-100% mortality)
C#CCN1C2CCC1CC(C#N)(c1cncc(Cl)c1)C2 (stereo not shown) [Compound 75]	A (A indicates 80-100% mortality)
C=CCN1C2CCC1CC(C#N)(c1cncc(Cl)c1)C2 (stereo not drawn) [Compound 76, exo-3-(5-chloropyrid-3-yl)-endo-3-cyano-8-allyl-8-azabicyclo[3.2.1]octane]	A (A indicates 80-100% mortality)
COc1cncc(C2(C#N)CC3CCC(C2)N3C)c1 (stereo not drawn) [Compound 77, exo-3-(5-methoxypyrid-3-yl)-endo-3-cyano-8-methyl-8-azabicyclo[3.2.1]octane]	A (A indicates 80-100% mortality)
CCN1C2CCC1CC(C#N)(c1cncc(Cl)c1)C2 (stereo not shown) [Compound 78]	A (A indicates 80-100% mortality)
CCCCN1C2CCC1CC(C#N)(c1cncc(Cl)c1)C2 (stereo not shown) [Compound 79]	A (A indicates 80-100% mortality)
COc1cncc(C2(C#N)CC3CCC(C2)N3C)c1 (stereo not shown) [Compound 80]	A (A indicates 80-100% mortality)
CCCCCCN1C2CCC1CC(C#N)(c1cncc(Cl)c1)C2 (stereo not drawn) [Compound 81, exo-3-(5-chloropyrid-3-yl)-endo-3-cyano-8-(n-hexyl)-8-azabicyclo[3.2.1]octane]	A (A indicates 80-100% mortality)
N#CC1(c2cncc(Cl)c2)CC2CCC(C1)N2C(=O)Oc1ccccc1 (stereo not shown) [Compound 82]	A (A indicates 80-100% mortality)
N#CC1(c2cncc(Cl)c2)CC2CCC(C1)N2C(=O)OCC(Cl)(Cl)Cl (stereo not shown) [Compound 83]	A (A indicates 80-100% mortality)
CCOC(=O)N1C2CCC1CC(C#N)(c1cncc(Cl)c1)C2 (stereo not shown) [Compound 84]	A (A indicates 80-100% mortality)
N#CC1(c2cncc(Cl)c2)CC2CCC(C1)N2C(=O)OCC1c2ccccc2-c2ccccc21 (stereo not shown) [Compound 85]	A (A indicates 80-100% mortality)
CCOC(=O)CN1C2CCC1CC(C#N)(c1cncc(Cl)c1)C2 (stereo not shown) [Compound 86]	A (A indicates 80-100% mortality)
CC(C)N1C2CCC1CC(C#N)(c1cncc(Cl)c1)C2 (stereo not drawn) [Compound 87, exo-3-(5-chloropyrid-3-yl)-endo-3-cyano-8-isopropyl-8-azabicyclo[3.2.1]octane]	A (A indicates 80-100% mortality)
N#CC1(c2cncc(Cl)c2)CC2CCC(C1)N2C=CC(=O)C(F)(F)F (stereo not drawn) [Compound 88, exo-3-(5-chloropyrid-3-yl)-endo-3-cyano-8-(3-oxo-4,4,4-trifluorobut-1-en-1-yl)-8-azabicyclo[3.2.1]octane]	A (A indicates 80-100% mortality)
CC(OC(=O)N1C2CCC1CC(C#N)(c1cncc(Cl)c1)C2)C(Cl)(Cl)Cl (stereo not shown) [Compound 89]	C (C indicates less than 40% mortality)
C=CCOC(=O)N1C2CCC1CC(C#N)(c1cncc(Cl)c1)C2 (stereo not shown) [Compound 90]	A (A indicates 80-100% mortality)
N#CC1(c2cncc(Cl)c2)CC2CCC(C1)N2C(=O)OCc1ccccc1 (stereo not shown) [Compound 91]	A (A indicates 80-100% mortality)
N#CC1(c2cncc(Cl)c2)CC2CCC(C1)N2C(=O)OCCCl (stereo not shown) [Compound 92]	A (A indicates 80-100% mortality)
N#CC1(c2cncc(Cl)c2)CC2CCC(C1)N2Cc1c(F)c(F)c(F)c(F)c1F (stereo not drawn) [Compound 93, exo-3-(5-chloropyrid-3-yl)-endo-3-cyano-8-(pentafluorophenylmethyl)-8-azabicyclo[3.2.1]octane]	A (A indicates 80-100% mortality)
N#CC1(c2cncc(Cl)c2)CC2CCC(C1)N2c1ccc([N+](=O)[O-])cc1 (stereo not shown) [Compound 94]	C (C indicates less than 40% mortality)
CC(=O)N1C2CCC1CC(C#N)(c1cncc(Cl)c1)C2 (stereo not drawn) [Compound 95, exo-3-(5-chloropyrid-3-yl)-endo-3-cyano-8-acetyl-8-azabicyclo[3.2.1]octane]	A (A indicates 80-100% mortality)
N#CC1(c2cncc(Cl)c2)CC2CCC(C1)N2C(=O)C(F)(F)F (stereo not shown) [Compound 96]	A (A indicates 80-100% mortality)
